Tests used:
MT4 [1] = experiment: Concentration required to protect MT-4 cells against the cytopathogenicity of HIV-1 IIIB; assay type: functional, cell-based; settings: Homo sapiens
MT4 [2] = experiment: Concentration required to inhibit the proliferation of uninfected MT-4 cells; assay type: functional; settings: Homo sapiens

SMILES: Cc1[nH]c(C(=O)NCCCN)cc2c3ccccc3nc1-2
- EC50 (MT4 [1]): > 100 µM
- CC50 (MT4 [2]): > 100 µM

SMILES: NCCCNC(=O)c1cc2c3ccccc3nc-2c[nH]1
- EC50 (MT4 [1]): > 1000 µM
- CC50 (MT4 [2]): > 1000 µM

SMILES: N=C(N)NCCCNC(=O)c1cc2c3ccccc3nc-2c[nH]1
- EC50 (MT4 [1]): ≥ 50 µM
- CC50 (MT4 [2]): > 1000 µM

SMILES: Cc1[nH]c(C(=O)NCCCN=C(N)N)cc2c3ccccc3nc1-2
- EC50 (MT4 [1]): ≥ 50 µM
- CC50 (MT4 [2]): > 100 µM
